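All cell lines were grown in 96-well plates and treated with compound for 48 hours. At the GI50, growth is halved.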 The source made the active and inactive calls. Rule as the data show it: active = GI50 up to about 1.1 µM and inactive = higher.
Key:
Test in all cases: DTP human tumour cell line panel, 48 h
KM12 = test system: KM12
UACC-257 = test system: UACC-257
SNB-78 = test system: SNB-78
SW-620 = test system: SW-620
SNB-75 = test system: SNB-75
EKVX = test system: EKVX
TK-10 = test system: TK-10
SNB-19 = test system: SNB-19
NCI-H23 = test system: NCI-H23
K562 = test system: K562
HCT-116 = test system: HCT-116
HCT-15 = test system: HCT-15
LXFL 529 = test system: LXFL 529
HT-29 = test system: HT-29
OVCAR-4 = test system: OVCAR-4
COLO 205 = test system: COLO 205
SN12C = test system: SN12C
IGROV-1 = test system: IGROV-1
KM-20L2 = test system: KM-20L2
786-0 = test system: 786-0
SF-539 = test system: SF-539
RXF 393 = test system: RXF 393
A549 = test system: A549
RPMI-8226 = test system: RPMI-8226
OVCAR-3 = test system: OVCAR-3
SK-OV-3 = test system: SK-OV-3
OVCAR-5 = test system: OVCAR-5
SK-MEL-2 = test system: SK-MEL-2
CAKI-1 = test system: CAKI-1
DMS-273 = test system: DMS-273
LOX IMVI = test system: LOX IMVI
DLD-1 = test system: DLD-1
CCRF-CEM = test system: CCRF-CEM
HL-60 = test system: HL-60
HOP-18 = test system: HOP-18
UACC-62 = test system: UACC-62
M14 = test system: M14
SF-268 = test system: SF-268
MOLT-4 = test system: MOLT-4
NCI-H460 = test system: NCI-H460
OVCAR-8 = test system: OVCAR-8
HOP-62 = test system: HOP-62
UO-31 = test system: UO-31
Malme-3M = test system: Malme-3M
DMS-114 = test system: DMS-114
SK-MEL-5 = test system: SK-MEL-5
U-251 = test system: U-251
M19-MEL = test system: M19-MEL
ACHN = test system: ACHN
HCC 2998 = test system: HCC 2998
SF-295 = test system: SF-295
NCI-H226 = test system: NCI-H226
A498 = test system: A498
SK-MEL-28 = test system: SK-MEL-28
SR = test system: SR
HOP-92 = test system: HOP-92
NCI-H522 = test system: NCI-H522

## CCOC(C)OCC#CCCBr (configuration not stated)
KM12
  GI50: > 100 µM (inactive)
UACC-257
  GI50: > 100 µM (inactive)
SNB-78
  GI50: > 100 µM (inactive)
SW-620
  GI50: > 100 µM (inactive)
SNB-75
  GI50: 55.3 µM (inactive)
EKVX
  GI50: > 100 µM (inactive)
TK-10
  GI50: > 100 µM (inactive)
SNB-19
  GI50: > 100 µM (inactive)
NCI-H23
  GI50: > 100 µM (inactive)
K562
  GI50: 59.7 µM (inactive)
HCT-116
  GI50: > 100 µM (inactive)
HCT-15
  GI50: > 100 µM
LXFL 529
  GI50: > 100 µM (inactive)
HT-29
  GI50: > 100 µM (inactive)
OVCAR-4
  GI50: > 100 µM (inactive)
COLO 205
  GI50: > 100 µM (inactive)
SN12C
  GI50: > 100 µM (inactive)
IGROV-1
  GI50: > 100 µM (inactive)
KM-20L2
  GI50: > 100 µM (inactive)
786-0
  GI50: > 100 µM (inactive)
SF-539
  GI50: > 100 µM (inactive)
RXF 393
  GI50: > 100 µM (inactive)
A549
  GI50: > 100 µM (inactive)
RPMI-8226
  GI50: > 100 µM (inactive)
OVCAR-3
  GI50: > 100 µM (inactive)
SK-OV-3
  GI50: > 100 µM (inactive)
OVCAR-5
  GI50: > 100 µM (inactive)
SK-MEL-2
  GI50: > 100 µM (inactive)
CAKI-1
  GI50: > 100 µM (inactive)
DMS-273
  GI50: > 100 µM (inactive)
LOX IMVI
  GI50: > 100 µM (inactive)
DLD-1
  GI50: > 100 µM (inactive)
CCRF-CEM
  GI50: 37.1 µM (inactive)
HL-60
  GI50: 80.5 µM (inactive)
HOP-18
  GI50: > 100 µM (inactive)
UACC-62
  GI50: > 100 µM (inactive)
M14
  GI50: > 100 µM (inactive)
SF-268
  GI50: > 100 µM (inactive)
MOLT-4
  GI50: > 100 µM (inactive)
NCI-H460
  GI50: > 100 µM (inactive)
OVCAR-8
  GI50: > 100 µM (inactive)
HOP-62
  GI50: > 100 µM (inactive)
UO-31
  GI50: > 100 µM (inactive)
Malme-3M
  GI50: > 100 µM (inactive)
DMS-114
  GI50: 79.1 µM (inactive)
SK-MEL-5
  GI50: > 100 µM (inactive)
U-251
  GI50: > 100 µM (inactive)
M19-MEL
  GI50: > 100 µM (inactive)
ACHN
  GI50: > 100 µM (inactive)
HCC 2998
  GI50: > 100 µM (inactive)
SF-295
  GI50: > 100 µM (inactive)

## O=c1c2ccccc2nc(-c2ccccc2)n1NC(=S)Nc1ccccc1
KM12
  GI50: > 100 µM (inactive)
NCI-H226
  GI50: > 100 µM (inactive)
UACC-257
  GI50: > 100 µM (inactive)
A498
  GI50: > 100 µM (inactive)
SW-620
  GI50: > 100 µM (inactive)
SK-MEL-28
  GI50: 34.8 µM (inactive)
SNB-75
  GI50: 38.3 µM (inactive)
TK-10
  GI50: > 100 µM (inactive)
NCI-H23
  GI50: > 100 µM (inactive)
K562
  GI50: > 100 µM (inactive)
HCT-116
  GI50: > 100 µM (inactive)
HCT-15
  GI50: > 100 µM
LXFL 529
  GI50: 81.8 µM (inactive)
HT-29
  GI50: > 100 µM (inactive)
SR
  GI50: > 100 µM (inactive)
OVCAR-4
  GI50: > 100 µM (inactive)
COLO 205
  GI50: > 100 µM (inactive)
SN12C
  GI50: > 100 µM (inactive)
IGROV-1
  GI50: > 100 µM (inactive)
786-0
  GI50: > 100 µM (inactive)
SF-539
  GI50: > 100 µM (inactive)
RXF 393
  GI50: > 100 µM (inactive)
A549
  GI50: > 100 µM (inactive)
RPMI-8226
  GI50: > 100 µM (inactive)
SK-OV-3
  GI50: > 100 µM (inactive)
OVCAR-5
  GI50: > 100 µM (inactive)
SK-MEL-2
  GI50: > 100 µM (inactive)
CAKI-1
  GI50: > 100 µM (inactive)
DMS-273
  GI50: > 100 µM (inactive)
LOX IMVI
  GI50: 91 µM (inactive)
DLD-1
  GI50: > 100 µM (inactive)
CCRF-CEM
  GI50: > 100 µM (inactive)
HL-60
  GI50: > 100 µM (inactive)
HOP-18
  GI50: > 100 µM (inactive)
UACC-62
  GI50: > 100 µM (inactive)
HOP-92
  GI50: > 100 µM (inactive)
M14
  GI50: > 100 µM (inactive)
SF-268
  GI50: > 100 µM (inactive)
MOLT-4
  GI50: > 100 µM (inactive)
NCI-H460
  GI50: > 100 µM (inactive)
OVCAR-8
  GI50: > 100 µM (inactive)
HOP-62
  GI50: > 100 µM (inactive)
UO-31
  GI50: 81.7 µM (inactive)
Malme-3M
  GI50: > 100 µM (inactive)
DMS-114
  GI50: 14.3 µM (inactive)
NCI-H522
  GI50: > 100 µM (inactive)
SK-MEL-5
  GI50: 89.1 µM (inactive)
U-251
  GI50: > 100 µM (inactive)
M19-MEL
  GI50: 94.4 µM (inactive)
ACHN
  GI50: > 100 µM (inactive)
SF-295
  GI50: > 100 µM (inactive)

Source: ChEMBL document CHEMBL1201862, “PubChem BioAssay data set” (2004)
